In patent US12070033B1, “Aquatic herbicide having non-herbicidal functional ingredients” (SePRO Corporation, priority 2019, dated 2024):

System: hydrilla
Assay: Total phosphorus extracted from hydrilla and from the water in which it was located
Format: in vivo, Hydrilla verticillata
Conditions: 5 ppm dipotassium endothall
Protocol: Turning now to FIG. 7, treatment of aquatic weeds with the aquatic herbicidal formulation results in both an increased release of nutrients, such as phosphorus, from treated plants and a reduction from the water column of those nutrients released. In one experiment, total phosphorus was extracted from hydrilla and from water in which the hydrilla was located. In one test group, the hydrilla was untreated (control group). In a second test group, the hydrilla was treated with Formulation 1 (5 ppm dipotassium endothall) and, in a third test group, the hydrilla was treated with Aquathol® K (5 ppm dipotassium endothall). In the untreated control group, the plants remained healthy and pulled available phosphorus from the water column, resulting in a lower amount of phosphorus in the water (indicated by the darker shading at the bottom of each column) as compared to groups treated with Formulation 1 and Aquathol® K (as indicated by the lighter shading at the top of each column).

O=C([O-])[C@@H]1[C@H](C(=O)[O-])[C@H]2CC[C@@H]1O2.[K+].[K+] [dipotassium endothall]
plant's phosphorus released into the water: approximately 27%
